{"source": "patent US7199131B2", "about": "“Sulfonamide and sulfamide substituted imidazoquinolines” (3M Innovative Properties Company, priority 2001, dated 2007)", "key": {"[1]": {"system": "tumor necrosis factor (α)", "experiment": "Cytokine Induction in Human Cells: tumor necrosis factor (α) secreted by PBMCs, ELISA", "type": "cell-based", "conditions": "PBMC, incubated 18 to 24 hours, lowest concentration found to induce tumor necrosis factor", "text": "(§1) An in vitro human blood cell system was used to assess cytokine induction by compounds of the invention. Activity is based on the measurement of interferon and tumor necrosis factor (α) (IFN and TNF, respectively) secreted into culture media as described by Testerman et. al. In “Cytokine Induction by the Immunomodulators Imiquimod and S-27609”, Journal of Leukocyte Biology, 58, 365–372 (September, 1995).\n(§2) Whole blood is collected by venipuncture into EDTA vacutainer tubes from healthy human donors. Peripheral blood mononuclear cells (PBMCs) are separated from whole blood by density gradient centrifugation using Histopaque®-1077 (Sigma Chemicals, St. Louis, Mo.). The PBMCs are suspended at 3–4×10^6 cells/mL in RPMI 1640 medium containing 10% fetal bovine serum, 2 mM L-glutamine and 1% penicillin/streptomycin solution (RPMI complete). The PBMC suspension is added to 48 well flat bottom sterile tissue culture plates (Costar, Cambridge, Mass. or Becton Dickinson Labware, Lincoln Park, N.J.) containing an equal volume of RPMI complete media containing test compound.\n(§3) The compounds are solubilized in dimethyl sulfoxide (DMSO). The DMSO concentration should not exceed a final concentration of 1% for addition to the culture wells.\n(§4) The solution of test compound is added at 60 μM to the first well containing RPMI complete and serial (three fold or ten fold) dilutions are made. The PBMC suspension is then added to the wells in an equal volume, bringing the test compound concentrations to the desired range. The final concentration of PBMC suspension is 1.5–2×10^6 cells/mL. The plates are covered with sterile plastic lids, mixed gently and then incubated for 18 to 24 hours at 37° C. in a 5% carbon dioxide atmosphere.\n(§5) Following incubation the plates are centrifuged for 5–10 minutes at 1000 rpm (˜200×g) at 4° C. The cell culture supernatant is removed with a sterile polypropylene pipette and transferred to sterile polypropylene tubes. Samples are maintained at −30 to −70° C. until analysis. The samples are analyzed for interferon (α) and tumor necrosis factor (α) by ELISA\nTumor necrosis factor (α) (TNF) concentration is determined using ELISA kits available from Genzyme, Cambridge, Mass.; R&D Systems, Minneapolis, Minn.; or Pharmingen, San Diego, Calif.\n(§6) The table below lists the lowest concentration found to induce interferon and the lowest concentration found to induce tumor necrosis factor for each compound."}, "interferon (α)": {"system": "interferon (α)", "experiment": "Cytokine Induction in Human Cells: interferon (α) secreted by PBMCs, ELISA", "type": "cell-based", "conditions": "PBMC, incubated 18 to 24 hours, lowest concentration found to induce interferon", "text": "as §1, §2, §3, §4, §5\nInterferon (α) concentration is determined by ELISA using a Human Multi-Species kit from PBL Biomedical Laboratories, New Brunswick, N.J.\nas §6"}}}
{"compound": "Cc1nc2c(N)nc3ccccc3c2n1CCCCNS(C)(=O)=O", "note": "[Example 238, N-[4-(4-amino-2-methyl-1H-imidazo[4,5-c]quinolin-1-yl)butyl]methanesulfonanide]", "values": [{"measurement": "minimal effective concentration", "setting": "[1]", "value": 0.37, "unit": "µM"}, {"measurement": "minimal effective concentration", "setting": "interferon (α)", "value": 0.04, "unit": "µM"}, {"measurement": "melting point", "value": "229.4 to 230.5", "unit": "°C"}]}
{"compound": "Cc1nc2c(N)nc3ccccc3c2n1CCCCNS(=O)(=O)c1ccccc1", "note": "[Example 237, N-[4-(4-amino-2-methyl-1H-imidazo[4,5-c]quinolin-1-yl)butyl]benzenesulfonamide]", "values": [{"measurement": "minimal effective concentration", "setting": "[1]", "value": 0.04, "unit": "µM"}, {"measurement": "minimal effective concentration", "setting": "interferon (α)", "value": 0.37, "unit": "µM"}, {"measurement": "melting point", "value": "215.4 to 216", "unit": "°C"}]}
{"compound": "CS(=O)(=O)NCCCCCCCCn1cnc2c(N)nc3ccccc3c21", "note": "[Example 252, N-[8-(4-amino-1H-imidazo[4,5-c]quinolin-1-yl)octyl]methanesulfonamide]", "values": [{"measurement": "minimal effective concentration", "setting": "[1]", "value": 1.11, "unit": "µM"}, {"measurement": "minimal effective concentration", "setting": "interferon (α)", "value": 0.37, "unit": "µM"}, {"measurement": "melting point", "value": "153 to 155", "unit": "°C"}]}
{"compound": "CCCCc1nc2c(N)nc3ccccc3c2n1CCCNS(=O)(=O)c1ccc(C)cc1", "note": "[Example 246, N-[3-(4-amino-2-butyl-1H-imidazo[4,5-c]quinolin-1-yl)propyl]-4-methylbenzenesulfonamide]", "values": [{"measurement": "minimal effective concentration", "setting": "[1]", "value": 3.33, "unit": "µM"}, {"measurement": "minimal effective concentration", "setting": "interferon (α)", "value": 1.11, "unit": "µM"}, {"measurement": "melting point", "value": "197 to 198.5", "unit": "°C"}]}
{"compound": "CCOCc1nc2c(N)nc3c(c2n1CCCNS(C)(=O)=O)CCCC3", "note": "[Example 260, N-{3-[4-amino-2-(ethoxymethyl)-6,7,8,9-tetrahydro-1H-imidazo[4,5-c]quinolin-1-yl]propyl}methanesulfonamide]", "values": [{"measurement": "minimal effective concentration", "setting": "[1]", "value": 0.37, "unit": "µM"}, {"measurement": "minimal effective concentration", "setting": "interferon (α)", "value": 0.01, "unit": "µM"}, {"measurement": "melting point", "value": "212 to 214", "unit": "°C"}]}
{"compound": "CCCCc1nc2c(N)nc3ccccc3c2n1CCCCCCCCNS(=O)(=O)c1ccccc1", "note": "[Example 248, N-[8-(4-amino-2-butyl-1H-imidazo[4,5-c]quinolin-1-yl)octyl]benzenesulfonamide]", "values": [{"measurement": "minimal effective concentration", "setting": "[1]", "value": 0.01, "unit": "µM"}, {"measurement": "minimal effective concentration", "setting": "interferon (α)", "value": 0.12, "unit": "µM"}, {"measurement": "melting point", "value": "143 to 144", "unit": "°C"}]}
{"compound": "COCCc1nc2c(N)nc3ccccc3c2n1CCCNS(=O)(=O)c1ccc(C)cc1", "note": "[Example 253, N-{3-[4-amino-2-(2-methoxyethyl)-1H-imidazo[4,5-c]quinolin-1-yl]propyl}-4-methylbenzenesulfonamide]", "values": [{"measurement": "minimal effective concentration", "setting": "[1]", "value": 0.12, "unit": "µM"}, {"measurement": "minimal effective concentration", "setting": "interferon (α)", "value": 0.04, "unit": "µM"}, {"measurement": "melting point", "value": "189 to 191", "unit": "°C"}]}
{"compound": "CS(=O)(=O)NCCCCn1c(CCCOc2ccccc2)nc2c(N)nc3ccccc3c21", "note": "[Example 262, N-{4-[4-amino-2-(3-phenoxypropyl)-1H-imidazo[4,5-c]quinolin-1-yl]butyl}methanesulfonamide]", "values": [{"measurement": "minimal effective concentration", "setting": "[1]", "value": 10, "unit": "µM"}, {"measurement": "minimal effective concentration", "setting": "interferon (α)", "value": "> 30", "unit": "µM"}, {"measurement": "melting point", "value": "156.4 to 157.1", "unit": "°C"}]}
{"compound": "COCCc1nc2c(N)nc3c(c2n1CCCNS(C)(=O)=O)CCCC3", "note": "[Example 259, N-{3-[4-amino-2-(2-methoxyethyl)-6,7,8,9-tetrahydro-1H-imidazo[4,5-c]quinolin-1-yl]propyl}methanesulfonamide]", "values": [{"measurement": "minimal effective concentration", "setting": "[1]", "value": 10, "unit": "µM"}, {"measurement": "minimal effective concentration", "setting": "interferon (α)", "value": 0.01, "unit": "µM"}, {"measurement": "melting point", "value": "150 to 152", "unit": "°C"}]}
